Laboratory results from patent publication US9663478B2, “Benzotriazine oxides as drugs targeting Mycobacterium tuberculosis” (priority 2011, dated 2017).
≈ marks a conversion by molar mass, not a printed value.

How the values were obtained:
[1] = system: Enterobacter aerogenes ATCC 29751; assay: Spectrum of antimicrobial activity; assay type: cell-based
Mtb H37Rv [2] = assay: TB MIC - ITR (UIC), Institute for Tuberculosis Research; assay type: cell-based, Mycobacterium tuberculosis; conditions: Mycobacterium tuberculosis, H37RV; Tables 1-4; read-out: TB MIC - ITR
[3] = Plasma pharmacokinetics in female mice after oral administration; assay type: in vivo, mouse; conditions: 100 mg/kg
Protocol: In order to validate BTOs as a new lead series for the treatment of TB, we also evaluated their systemic exposure in the mouse after oral administration. A single dose (100 mg/kg) of 8a and 20q were administered to mice in order to profile the pharmacokinetics for the BTOs (Table 7). […] The elimination half-life was for each compound was shorter than our ideal target values, but the Tmax values indicate that they are rapidly absorbed after oral administration (FIGURE).
All pharmacokinetic studies were performed in accordance with SRI International's animal care policies in an AAALAC and OLAW accredited facility. The procedure for the pharmacokinetics studies followed a previously described method.^55 Briefly, the plasma pharmacokinetics of selected BTO derivatives were determined in female CD1 mice after administration of a single dose (100 mg/kg) by oral gavage. Blood was collected from three mice per time point at 5, 15, 30, and 60 min and 2, 4, 6, 8, and 24 h after dose administration. Means and standard deviations were calculated for the plasma drug concentrations at each time point. Pharmacokinetic analysis was performed using non compartmental methods (WinNonlin® Professional, Version 5.2, Pharsight Corp, Mountain View, Calif.). The following parameters were calculated: time to maximum plasma concentration (Tmax), maximum plasma concentration (Cmax), maximum plasma concentration extrapoloated to time 0 (C0), area under the plasma concentration-time curve to the last time point (AUClast) and to infinity (AUCinf).

[4] = system: Staphylococcus aureus HA-MRSA NRS 382; assay: Spectrum of antimicrobial activity; assay type: cell-based
[5] = system: Pseudomonas aeruginosa ATCC 27853; assay: Spectrum of antimicrobial activity; assay type: cell-based
[6] = system: Staphylococcus aureus ATCC 29213; assay: Spectrum of antimicrobial activity; assay type: cell-based
[7] = system: Escherichia coli pKM101 SRI Collection; assay: Spectrum of antimicrobial activity; assay type: cell-based
[8] = system: Klebsiella pneumoniae ATCC 700721; assay: Spectrum of antimicrobial activity; assay type: cell-based
[9] = system: Moraxella catarrhalis ATCC 25238; assay: Spectrum of antimicrobial activity; assay type: cell-based
[10] = system: Enterobacter aerogenes SRI Collection; assay: Spectrum of antimicrobial activity; assay type: cell-based
[11] = system: Acinetobacter baumannii ATCC 17978; assay: Spectrum of antimicrobial activity; assay type: cell-based
[12] = system: Salmonella typhimurium -Hisg46 SRI Collection; assay: Spectrum of antimicrobial activity; assay type: cell-based
Escherichia coli BAA 201 = assay: Spectrum of antimicrobial activity; assay type: cell-based
[13] = system: Enterococcus fecalis ATCC 29212; assay: Spectrum of antimicrobial activity; assay type: cell-based
[14] = Solubility, shake-flask method; assay type: physicochemical; conditions: 0.9% saline solution at pH 7.4, triplicate
Protocol: The solubility of these two compounds was measured in triplicate using the shake-flask method in a 0.9% saline solution at pH 7.4. Both 8a and 20q had acceptable solubilities of 1.35 mg/mL and 0.28 mg/mL, respectively.
Compounds were ground into a fine powders using a mortar and pestle and added to a 25 mL glass Erlenmeyer flask with 5 mL of a 0.9% saline solution at pH 7.4. Approximately 20 mg of compound was added to each flask to ensure saturation. The flasks were then vigorously stirred using a magnetic stir bar at 25° C. for 48 hours. The samples were then filtered through a Whatman PVDF membrane (0.45 μm pore size) syringe filter. The concentration of compound in the supernatant was then measured using HPLC quantitation at the maximum absorption wavelength for each compound.

Mtb H37Rv [15] = assay: TB MIC - SRI, resazurin-based microplate assay; assay type: cell-based, Mycobacterium tuberculosis; conditions: source CSU; SI Table 1
[16] = system: Escherichia coli ATCC 25922; assay: Spectrum of antimicrobial activity; assay type: cell-based
[17] = system: Mycobacterium smegmatis ATCC 10143; assay: Spectrum of antimicrobial activity; assay type: cell-based
[18] = system: Enterococcus faecium ATCC 19434; assay: Spectrum of antimicrobial activity; assay type: cell-based
[19] = system: Enterococcus fecalis ATCC 51575; assay: Spectrum of antimicrobial activity; assay type: cell-based
NRP Mtb H37Rv cells = assay: Low-oxygen recovery assay (LORA) MIC; assay type: cell-based, Mycobacterium tuberculosis; conditions: Mycobacterium tuberculosis, H37RV, read-out: LORA MIC - ITR
[20] = system: Mycobacterium abscessus ATCC 19977; assay: Spectrum of antimicrobial activity; assay type: cell-based
[21] = system: Klebsiella pneumoniae ATCC 43816; assay: Spectrum of antimicrobial activity; assay type: cell-based
[22] = system: Acinetobacter baumannii BAA 1605; assay: Spectrum of antimicrobial activity; assay type: cell-based
[23] = system: Salmonella choleraesuis ATCC 13311; assay: Spectrum of antimicrobial activity; assay type: cell-based

## CCNc1n[n+]([O-])c2ccccc2[n+]1[O-] [Compound 8a, 3-(ethylamino)benzo[e][1,2,4]triazine 1,4-dioxide]
[1]
  Antimicrobial activity, Enterobacter aerogenes: >32 µg/mL
Mtb H37Rv [2]
  MIC: 0.57 µg/mL (≈ 2.76 µM)
[3]; female mice, oral
  AUCinf: 6937 ng·h/mL
  AUClast: 6578 ng·h/mL
  Cmax: 9540 ng/mL
  Tmax: 4.8 min
  t1/2: 90 min
[3]; mouse, in vivo, po
  plasma drug concentration at the 24 hr time point: lower than the limit of quantitation
[4]
  Antimicrobial activity, Staphylococcus aureus HA-MRSA: 16 to 32 µg/mL
[5]
  Antimicrobial activity, Pseudomonas aeruginosa: >32 µg/mL
[6]
  Antimicrobial activity, Staphylococcus aureus: >32 µg/mL
[7]
  Antimicrobial activity, Escherichia coli pKM101: 32 μg/mL
[8]
  Antimicrobial activity, Klebsiella pneumoniae: >32 µg/mL
[9]
  Antimicrobial activity, Moraxella catarrhalis: 32 µg/mL
[10]
  Antimicrobial activity, Enterobacter aerogenes: >32 µg/mL
[11]
  Antimicrobial activity, Acinetobacter baumannii: 32 µg/mL
[12]
  Antimicrobial activity, Salmonella typhimurium -Hisg46: >32 µg/mL
Escherichia coli BAA 201
  Antimicrobial activity, Escherichia coli: 16 µg/mL
[13]
  Antimicrobial activity, Enterococcus fecalis: 16 µg/mL
[14]
  solubility: 1350 µg/mL (≈ 6550 µM)
Mtb H37Rv [15]
  Antimicrobial activity, Mtb H37Rv: 1.2 µg/mL
[16]
  Antimicrobial activity, Escherichia coli: 16 µg/mL
[17]
  Antimicrobial activity, Mycobacterium smegmatis: 5.0 µg/mL
[18]
  Antimicrobial activity, Enterococcus faecium: >32 µg/mL
[19]
  Antimicrobial activity, Enterococcus fecalis: 32 µg/mL
NRP Mtb H37Rv cells
  MIC: 0.37 µg/mL (≈ 1.79 µM)
[20]
  susceptibility of M. abscessus: resistant
[20]; ATCC 19977
  Antimicrobial activity, Mycobacterium abscessus: >32 µg/mL
[21]
  Antimicrobial activity, Klebsiella pneumoniae: >32 µg/mL
[22]
  Antimicrobial activity, Acinetobacter baumannii: >32 µg/mL
[23]
  Antimicrobial activity, Salmonella choleraesuis: 32 µg/mL
